melting point: 134 to 137 °C
SMILES: CNCC[C@@H](c1ccccc1)c1c[nH]c2cccc(OC)c12 [[(S)-3-(4-Methoxy-1H-indol-3-yl)-3-phenyl-propyl]-methyl-amine]

From patent US7598399B2, “Methods for synthesis of 3-amino-1-arylpropyl indoles” (Roche Palo Alto LLC, priority 2005, dated 2009)
